Data taken from PMC3755381 (Australian journal of chemistry, 2012).

How the values were obtained:
Format in all cases: biochemical
class I PI3K isoforms = test: Inhibition of PI3K isoforms; conditions: for inhibition of PI3K: same compounds synthesized by compound 5 as key intermediate (no contaminant)
PI3Kγ = PI3Kγ (Homo sapiens, UniProt P48736); test: PI3Kγ inhibition
PI3Kβ = PI3Kβ (Homo sapiens, UniProt P42338); test: PI3Kβ inhibition
PI3Kδ = PI3Kδ (Homo sapiens, UniProt O00329); test: PI3Kδ inhibition
Sequence of PI3Kδ (O00329 whole entry, species assumed): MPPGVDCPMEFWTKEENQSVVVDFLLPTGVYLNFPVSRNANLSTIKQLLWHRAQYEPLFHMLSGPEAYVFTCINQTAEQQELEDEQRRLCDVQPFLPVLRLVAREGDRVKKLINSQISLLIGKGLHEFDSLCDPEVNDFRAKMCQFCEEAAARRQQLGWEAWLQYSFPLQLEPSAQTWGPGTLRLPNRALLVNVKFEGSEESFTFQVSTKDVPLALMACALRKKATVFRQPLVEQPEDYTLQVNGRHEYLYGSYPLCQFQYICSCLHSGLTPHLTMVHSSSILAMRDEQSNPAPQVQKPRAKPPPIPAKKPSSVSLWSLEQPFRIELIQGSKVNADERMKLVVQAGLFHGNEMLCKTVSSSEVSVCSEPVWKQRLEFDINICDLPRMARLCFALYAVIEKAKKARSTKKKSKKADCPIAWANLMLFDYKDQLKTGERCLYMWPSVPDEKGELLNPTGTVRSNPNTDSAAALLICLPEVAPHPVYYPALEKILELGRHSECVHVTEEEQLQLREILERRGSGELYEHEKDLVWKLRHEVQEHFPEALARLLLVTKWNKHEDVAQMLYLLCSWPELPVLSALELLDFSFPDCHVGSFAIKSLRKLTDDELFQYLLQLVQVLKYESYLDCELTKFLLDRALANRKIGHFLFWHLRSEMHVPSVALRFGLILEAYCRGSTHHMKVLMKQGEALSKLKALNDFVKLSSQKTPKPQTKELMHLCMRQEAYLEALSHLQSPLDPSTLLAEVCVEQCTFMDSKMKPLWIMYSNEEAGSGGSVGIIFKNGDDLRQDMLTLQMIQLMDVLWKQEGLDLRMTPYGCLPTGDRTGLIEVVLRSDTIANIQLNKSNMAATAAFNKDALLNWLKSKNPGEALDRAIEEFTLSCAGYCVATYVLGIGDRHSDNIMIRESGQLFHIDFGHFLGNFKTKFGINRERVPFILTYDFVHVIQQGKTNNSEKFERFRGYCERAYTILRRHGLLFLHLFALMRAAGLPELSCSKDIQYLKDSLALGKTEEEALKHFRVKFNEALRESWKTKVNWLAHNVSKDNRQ
Sequence of PI3Kδ (P27986 whole entry partner, species assumed): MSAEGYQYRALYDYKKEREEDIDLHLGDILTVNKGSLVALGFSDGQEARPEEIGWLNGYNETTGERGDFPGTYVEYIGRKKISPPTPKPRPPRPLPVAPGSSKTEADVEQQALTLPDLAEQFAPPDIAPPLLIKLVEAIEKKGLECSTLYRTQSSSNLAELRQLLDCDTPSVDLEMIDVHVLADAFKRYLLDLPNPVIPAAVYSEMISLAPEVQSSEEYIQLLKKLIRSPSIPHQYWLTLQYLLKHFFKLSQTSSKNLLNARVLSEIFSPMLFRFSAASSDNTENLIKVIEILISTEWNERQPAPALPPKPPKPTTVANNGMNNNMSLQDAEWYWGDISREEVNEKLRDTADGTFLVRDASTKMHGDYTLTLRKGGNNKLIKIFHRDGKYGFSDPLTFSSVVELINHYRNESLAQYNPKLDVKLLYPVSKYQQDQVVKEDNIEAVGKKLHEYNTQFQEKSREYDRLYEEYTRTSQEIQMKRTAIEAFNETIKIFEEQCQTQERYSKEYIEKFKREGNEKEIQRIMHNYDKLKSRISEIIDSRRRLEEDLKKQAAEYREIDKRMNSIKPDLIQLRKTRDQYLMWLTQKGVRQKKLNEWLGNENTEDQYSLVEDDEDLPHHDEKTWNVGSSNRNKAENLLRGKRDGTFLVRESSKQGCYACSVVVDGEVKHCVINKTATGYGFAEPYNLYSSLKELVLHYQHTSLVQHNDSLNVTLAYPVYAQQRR

PI3Kα = PI3Kα (Homo sapiens, UniProt P42336); test: PI3Kα inhibition
Sequence of PI3Kα (P42336 whole entry, species assumed): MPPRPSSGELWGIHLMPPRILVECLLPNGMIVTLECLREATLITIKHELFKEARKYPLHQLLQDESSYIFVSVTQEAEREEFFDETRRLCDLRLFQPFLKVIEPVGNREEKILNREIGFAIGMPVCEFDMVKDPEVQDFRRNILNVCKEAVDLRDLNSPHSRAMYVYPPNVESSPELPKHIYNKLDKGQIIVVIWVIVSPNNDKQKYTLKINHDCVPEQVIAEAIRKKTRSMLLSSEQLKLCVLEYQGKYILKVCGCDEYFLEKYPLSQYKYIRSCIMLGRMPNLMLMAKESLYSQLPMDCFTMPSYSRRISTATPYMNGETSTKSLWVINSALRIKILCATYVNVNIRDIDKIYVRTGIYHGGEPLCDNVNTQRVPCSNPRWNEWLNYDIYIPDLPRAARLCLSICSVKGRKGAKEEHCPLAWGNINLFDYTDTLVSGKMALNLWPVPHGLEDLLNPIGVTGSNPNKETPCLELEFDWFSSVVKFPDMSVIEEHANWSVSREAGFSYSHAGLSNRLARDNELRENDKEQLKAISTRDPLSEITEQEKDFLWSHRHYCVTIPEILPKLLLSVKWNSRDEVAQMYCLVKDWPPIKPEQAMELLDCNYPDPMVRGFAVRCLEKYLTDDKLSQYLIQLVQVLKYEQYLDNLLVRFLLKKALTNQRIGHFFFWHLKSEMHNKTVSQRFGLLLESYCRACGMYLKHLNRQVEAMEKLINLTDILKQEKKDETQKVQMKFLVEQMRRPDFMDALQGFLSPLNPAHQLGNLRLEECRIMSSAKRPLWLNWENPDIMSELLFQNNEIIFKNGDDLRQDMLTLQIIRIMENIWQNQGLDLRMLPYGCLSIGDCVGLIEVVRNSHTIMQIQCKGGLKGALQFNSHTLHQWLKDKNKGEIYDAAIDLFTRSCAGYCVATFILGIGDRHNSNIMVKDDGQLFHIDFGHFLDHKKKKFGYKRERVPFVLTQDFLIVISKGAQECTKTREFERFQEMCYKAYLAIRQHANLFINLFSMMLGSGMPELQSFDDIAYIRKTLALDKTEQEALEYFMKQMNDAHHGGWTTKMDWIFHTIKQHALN
Sequence of PI3Kα (P27986 whole entry partner, species assumed): as the sequence (P27986 whole entry partner, species assumed) above

PDE2 = PDE2 (Homo sapiens, UniProt O00408); test: PDE2 inhibition
Sequence of PDE2 (O00408 whole entry): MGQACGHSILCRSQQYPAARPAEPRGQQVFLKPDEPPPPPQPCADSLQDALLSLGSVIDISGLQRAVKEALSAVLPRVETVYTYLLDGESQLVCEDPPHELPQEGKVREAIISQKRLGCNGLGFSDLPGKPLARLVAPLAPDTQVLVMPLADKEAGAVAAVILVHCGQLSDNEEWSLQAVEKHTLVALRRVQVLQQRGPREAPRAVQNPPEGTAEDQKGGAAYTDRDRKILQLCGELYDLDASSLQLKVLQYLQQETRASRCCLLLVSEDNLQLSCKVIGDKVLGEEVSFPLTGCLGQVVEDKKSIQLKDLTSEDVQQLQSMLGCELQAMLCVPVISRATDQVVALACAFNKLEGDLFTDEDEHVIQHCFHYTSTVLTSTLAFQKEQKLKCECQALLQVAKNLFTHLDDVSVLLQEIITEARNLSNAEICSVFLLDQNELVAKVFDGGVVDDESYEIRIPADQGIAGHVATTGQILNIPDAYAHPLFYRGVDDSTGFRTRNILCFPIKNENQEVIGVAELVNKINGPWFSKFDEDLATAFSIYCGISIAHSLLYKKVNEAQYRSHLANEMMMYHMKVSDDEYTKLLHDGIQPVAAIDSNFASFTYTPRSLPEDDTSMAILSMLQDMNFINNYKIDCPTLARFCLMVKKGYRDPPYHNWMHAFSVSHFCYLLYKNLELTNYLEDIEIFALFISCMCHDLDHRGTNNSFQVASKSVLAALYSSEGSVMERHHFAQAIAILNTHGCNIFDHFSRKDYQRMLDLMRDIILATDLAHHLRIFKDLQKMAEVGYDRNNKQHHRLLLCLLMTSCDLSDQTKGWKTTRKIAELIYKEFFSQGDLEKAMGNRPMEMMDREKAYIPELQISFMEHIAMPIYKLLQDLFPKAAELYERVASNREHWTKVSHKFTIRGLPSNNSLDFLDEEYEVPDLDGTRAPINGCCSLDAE

PDE4 = PDE4 inhibition; conditions: for IC50: read-out: PDE4 inhibition IC50

Sequence of PI3Kγ (P48736 whole entry, species assumed): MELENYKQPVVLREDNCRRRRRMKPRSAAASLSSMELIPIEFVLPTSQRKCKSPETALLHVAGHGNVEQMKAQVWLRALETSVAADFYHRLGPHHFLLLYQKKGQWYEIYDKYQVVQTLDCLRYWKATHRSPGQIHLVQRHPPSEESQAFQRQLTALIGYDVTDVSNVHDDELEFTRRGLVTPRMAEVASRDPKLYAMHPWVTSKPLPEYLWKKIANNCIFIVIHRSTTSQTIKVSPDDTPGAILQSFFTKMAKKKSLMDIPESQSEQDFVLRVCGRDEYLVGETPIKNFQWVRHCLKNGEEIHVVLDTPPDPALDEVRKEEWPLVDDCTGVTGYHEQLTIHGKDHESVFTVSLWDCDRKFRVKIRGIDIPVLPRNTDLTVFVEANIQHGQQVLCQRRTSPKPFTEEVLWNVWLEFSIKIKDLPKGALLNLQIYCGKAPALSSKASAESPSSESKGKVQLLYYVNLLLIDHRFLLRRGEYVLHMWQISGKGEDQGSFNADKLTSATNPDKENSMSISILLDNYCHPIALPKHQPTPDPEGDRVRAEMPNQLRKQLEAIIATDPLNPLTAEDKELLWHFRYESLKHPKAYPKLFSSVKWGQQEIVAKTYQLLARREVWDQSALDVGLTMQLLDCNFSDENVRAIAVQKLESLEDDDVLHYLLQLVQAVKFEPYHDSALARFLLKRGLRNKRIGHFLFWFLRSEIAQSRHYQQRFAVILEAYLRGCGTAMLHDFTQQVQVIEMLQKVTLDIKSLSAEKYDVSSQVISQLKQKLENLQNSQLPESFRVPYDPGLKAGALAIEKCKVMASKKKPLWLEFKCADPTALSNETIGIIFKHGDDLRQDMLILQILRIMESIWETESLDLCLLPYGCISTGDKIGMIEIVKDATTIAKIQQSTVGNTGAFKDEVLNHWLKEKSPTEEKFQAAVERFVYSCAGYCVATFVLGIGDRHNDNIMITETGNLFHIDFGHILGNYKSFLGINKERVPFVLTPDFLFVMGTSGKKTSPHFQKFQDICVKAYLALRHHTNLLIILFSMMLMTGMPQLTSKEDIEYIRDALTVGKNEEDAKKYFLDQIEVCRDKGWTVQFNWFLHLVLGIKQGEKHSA

SMILES	IC50 (PI3Kγ)	IC50 (PI3Kβ)	IC50 (PI3Kδ)	IC50 (PI3Kα)	IC50 (PDE2)	IC50 (PDE4)	activity against PDE2 (in words) (PDE2)	inhibition of PI3K isoforms (in words) (class I PI3K isoforms)	inhibition of PI3K (class I PI3K isoforms)	activity against PDE4 (in words) (PDE4)
O=C1NC(=S)/C(=C/c2ccc3c(c2)OCO3)S1 [Compound 4, (Z)-5-(Benzo[d][1,3]dioxol-5-ylmethylene)-4-thioxothiazolidin-2-one]	0.12 µM	0.15 µM	0.76 µM							
O=C1NC(=N\CCc2ccc(O)cc2)/C(=C/c2ccc3c(c2)OCO3)S1 [Compound 7e, (4Z,5Z)-5-(Benzo[d][1,3]dioxol-5-ylmethylene)-4-((4-hydroxyphenethyl)imino)thiazolidin-2-one]									no inhibition	
O=C1NC(=N\C2CCCC2)/C(=C/c2ccc3c(c2)OCO3)S1 [Compound 7f, (4Z,5Z)-5-(Benzo[d][1,3]dioxol-5-ylmethylene)-4-(cyclopentylimino)thiazolidin-2-one]									no inhibition	
COc1ccc(C/N=C2\NC(=O)S\C2=C/c2ccc3c(c2)OCO3)cc1OC [Compound 7p, (4Z,5Z)-5-(Benzo[d][1,3]dioxol-5-ylmethylene)-4-((3,4-dimethoxybenzyl)imino)thiazolidin-2-one]	> 100 µM	> 100 µM	> 100 µM	> 100 µM	4.7 µM	5.1 µM		no inhibition		
C/N=C1\NC(=O)S\C1=C/c1ccc2c(c1)OCO2 [Compound 7x, (4Z,5Z)-5-(Benzo[d][1,3]dioxol-5-ylmethylene)-4-(methylimino)thiazolidin-2-one]	> 100 µM	> 100 µM	> 100 µM	90 µM	> 10 µM	> 10 µM	virtually inactive			virtually inactive

Continued, in another order:

IC50 (PI3Kγ)	IC50 (PI3Kβ)	IC50 (PI3Kδ)	IC50 (PI3Kα)	IC50 (PDE2)	IC50 (PDE4)	activity against PDE2 (in words) (PDE2)	SMILES	inhibition of PI3K isoforms (in words) (class I PI3K isoforms)	inhibition of PI3K (class I PI3K isoforms)	activity against PDE4 (in words) (PDE4)
0.04 µM	0.6 µM						O=C1NC(=O)/C(=C/c2ccc3c(c2)OCO3)S1 [Compound 2, (Z)-5-(Benzo[d][1,3]dioxol-5-ylmethylene) thiazolidine-2,4-dione, reference compound]	potent inhibitor		
0.06 µM	> 1 µM	0.038 µM	0.056 µM				CSC1=NC(=O)S/C1=C\c1ccc2c(c1)OCO2 [Compound 5, (Z)-5-(Benzo[d][1,3]dioxol-5-ylmethylene)-4-(methylthio)thiazol-2(5H)-one]			
14.5 µM	94 µM	62 µM	19 µM				C[C@H](/N=C1\NC(=O)S\C1=C/c1ccc2c(c1)OCO2)C(=O)O [Compound 7aa, (S)-2-((Z)-((Z)-5-(Benzo[d][1,3]dioxol-5-ylmethylene)-2-oxothiazolidin-4-ylidene)amino)propanoic Acid]			
11 µM	80 µM	43 µM	26 µM				O=C1NC(=N\[C@@H](Cc2c[nH]c3ccccc23)C(=O)O)/C(=C/c2ccc3c(c2)OCO3)S1 [Compound 7ab]			
> 100 µM	> 100 µM	> 100 µM	> 100 µM	> 10 µM	> 10 µM	virtually inactive	CC(O)C/N=C1\NC(=O)S\C1=C/c1ccc2c(c1)OCO2 (stereo not shown) [Compound 7z, (4Z,5Z)-5-(Benzo[d][1,3]dioxol-5-ylmethylene)-4-((2-hydroxypropyl)imino)thiazolidin-2-one]			virtually inactive
